Laboratory results from patent publication US7772241B2, “Variolin derivatives and their use as antitumor agents” (Pharma Mar S.A., priority 2001, dated 2010).
Read-outs that look alike come from different tables or passages of the source.

Legend:
SK-OV-3 = assay: Inhibition of cells growth by colorimetric (SRB) assay, SK-OV-3; conditions: for GI50 / CC50: Homo sapiens, SK-OV-3, 48 h; for GI50: read-out: GI50 SKOV-3, SRB assay, 48 hours exposure; for CC50: read-out: LC50 SKOV-3, SRB assay, 48 hours exposure; for TGI SKOV-3: SRB assay, 48 hours exposure
Description: (§1) The finality of these assays is to interrupt the growth of a “in vitro” tumor cell culture by means a continued exhibition of the cells to the sample to be testing.
(§2) This form of the assay employs 96 well cell culture microplates of 9 mm diameter (Faircloth, 1988; Mosmann, 1983). Most of the cell lines are obtained from American Type Culture Collection (ATCC) derived from different human cancer types.
(§3) Cells are maintained in RPMI 1640 10% FBS, supplemented with 0.1 g/l penicillin and 0.1 g/l streptomycin sulphate and then incubated at 37° C., 5% CO2 and 98% humidity. For the experiments, cells were harvested from subconfluent cultures using trypsin and resuspended in fresh medium before plating.
(§4) Cells are seeded in 96 well microtiter plates, at 5×10^3 cells per well in aliquots of 195 μl medium, and they are allowed to attach to the plate surface by growing in drug free medium for 18 hours. Afterward, samples are added in aliquots of 5 μl in a ranging from 10 to 10^−8 μg/ml, dissolved in DMSO/EtOH/PBS (0.5:0.5:99). After 48 hours exposure, the antitumor effect are measured by the SRB methodology: cells are fixed by adding 50 μl of cold 50% (wt/vol) trichloroacetic acid (TCA) and incubating for 60 minutes at 4° C. Plates are washed with deionized water and dried. One hundred μl of SRB solution (0.4% wt/vol in 1% acetic acid) is added to each microtiter well and incubated for 10 minutes at room temperature. Unbound SRB is removed by washing with 1% acetic acid. Plates are air dried and bound stain is solubilized with Tris buffer. Optical densities are read on a automated spectrophotometric plate reader at a single wavelength of 490 nm.
(§5) The values for mean +/−SD of data from triplicate wells are calculated. Some parameters for cellular responses can be calculated: GI=growth inhibition, TGI=total growth inhibition (cytostatic effect) and LC=cell killing (cytotoxic effect).

LoVo-Dox = assay: Inhibition of cells growth by colorimetric (SRB) assay, LoVo-Dox; conditions: for GI50 / CC50: Homo sapiens, 48 h; for GI50: read-out: GI50 LOVO-DOX, SRB assay, 48 hours exposure; for CC50: read-out: LC50 LOVO-DOX, SRB assay, 48 hours exposure; for TGI LOVO-DOX: SRB assay, 48 hours exposure
Description: as §1, §2, §3, §4, §5

LoVo = assay: Inhibition of cells growth by colorimetric (SRB) assay, LoVo; conditions: for GI50: read-out: GI50 LOVO, SRB assay, 48 hours exposure
Description: as §1, §2, §3, §4, §5

SK-BR-3 = assay: Inhibition of cells growth by colorimetric (SRB) assay, SK-BR-3; conditions: for GI50 / CC50: Homo sapiens, SK-BR-3, 48 h; for GI50: read-out: GI50 SK-BR-3, SRB assay, 48 hours exposure; for CC50: read-out: LC50 SK-BR-3, SRB assay, 48 hours exposure; for TGI SK-BR-3: SRB assay, 48 hours exposure
Description: as §1, §2, §3, §4, §5

DU-145 = assay: Inhibition of cells growth by colorimetric (SRB) assay, DU-145; conditions: for GI50: read-out: GI50 DU-145, SRB assay, 48 hours exposure
Description: as §1, §2, §3, §4, §5

IGROV-1 = assay: Inhibition of cells growth by colorimetric (SRB) assay, IGROV-1; conditions: for GI50: read-out: GI50 IGROV, SRB assay, 48 hours exposure
Description: as §1, §2, §3, §4, §5

SK-MEL-28 = assay: Inhibition of cells growth by colorimetric (SRB) assay, SK-MEL-28
Description: as §1, §2, §3, §4, §5

IGROV-ET = assay: Inhibition of cells growth by colorimetric (SRB) assay, IGROV-ET; conditions: for GI50 / CC50: Homo sapiens, 48 h; for GI50: read-out: GI50 IGROV-ET, SRB assay, 48 hours exposure; for CC50: read-out: LC50 IGROV-ET, SRB assay, 48 hours exposure; for TGI IGROV-ET: SRB assay, 48 hours exposure
Description: as §1, §2, §3, §4, §5

HT-29 = assay: Inhibition of cells growth by colorimetric (SRB) assay, HT-29; conditions: for GI50: read-out: GI50 HT-29, SRB assay, 48 hours exposure; for TGI HT-29: SRB assay, 48 hours exposure
Description: as §1, §2, §3, §4, §5

K-562 = assay: Inhibition of cells growth by colorimetric (SRB) assay, K-562; conditions: for GI50 / CC50: Homo sapiens, K562, 48 h; for GI50: read-out: GI50 K-562, SRB assay, 48 hours exposure; for CC50: read-out: LC50 K-562, SRB assay, 48 hours exposure; for TGI K-562: SRB assay, 48 hours exposure
Description: as §1, §2, §3, §4, §5

A-549 = assay: Inhibition of cells growth by colorimetric (SRB) assay, A-549; conditions: for GI50 / CC50: Homo sapiens, A549, 48 h; for GI50: read-out: GI50 A-549, SRB assay, 48 hours exposure; for CC50: read-out: LC50 A-549, SRB assay, 48 hours exposure; for TGI A-549: SRB assay, 48 hours exposure
Description: as §1, §2, §3, §4, §5

PANC-1 = assay: Inhibition of cells growth by colorimetric (SRB) assay, PANC-1; conditions: for GI50 / CC50: Homo sapiens, PANC-1, 48 h; for GI50: read-out: GI50 PANC-1, SRB assay, 48 hours exposure; for CC50: read-out: LC50 PANC-1, SRB assay, 48 hours exposure; for TGI PANC-1: SRB assay, 48 hours exposure
Description: as §1, §2, §3, §4, §5

Row | Compound | GI50 (SK-OV-3) | CC50 (SK-OV-3) | TGI SKOV-3 (SK-OV-3) | GI50 (LoVo-Dox) | CC50 (LoVo-Dox) | TGI LOVO-DOX (LoVo-Dox) | GI50 (LoVo; Homo sapiens, LoVo, 48 h) | TGI LOVO (LoVo; SRB assay, 48 hours exposure) | GI50 (SK-BR-3) | CC50 (SK-BR-3) | TGI SK-BR-3 (SK-BR-3) | GI50 (DU-145; Homo sapiens, DU-145, 48 h) | TGI DU-145 (DU-145; SRB assay, 48 hours exposure) | GI50 (IGROV-1; Homo sapiens, IGROV-1, 48 h) | TGI IGROV (IGROV-1; SRB assay, 48 hours exposure) | TGI MEL-28 (SK-MEL-28; SRB assay, 48 hours exposure) | GI50 (IGROV-ET) | CC50 (IGROV-ET) | TGI IGROV-ET (IGROV-ET) | GI50 (HT-29; Homo sapiens, HT-29, 48 h) | further results
1 | Nc1nccc(-c2c3c(N)ccnc3n3c(N)nccc23)n1 [Compound 90] | 0.465 µM | 13.9 µM | 1.15E−06 | 0.597 µM | 8.07 µM | 1.27E−06 | 0.276 µM | 6.54E−07 | 0.311 µM | 1.42 µM | 6.64E−07 | 0.355 µM | 1.03E−06 | 0.339 µM | 6.92E−07 | 9.68E−07 | 1.92 µM | 15.8 µM | 6.95E−06 | 1.27 µM | CC50 (LoVo; read-out: LC50 LOVO, SRB assay, 48 hours exposure): 1.56 µM; CC50 (DU-145; read-out: LC50 DU-145, SRB assay, 48 hours exposure): 10.7 µM; CC50 (IGROV-1; read-out: LC50 IGROV, SRB assay, 48 hours exposure): 1.41 µM; GI50 (SK-MEL-28; read-out: GI50 MEL-28, SRB assay, 48 hours exposure): 0.397 µM; CC50 (SK-MEL-28; read-out: LC50 MEL-28, SRB assay, 48 hours exposure): 3.45 µM; CC50 (HT-29; Homo sapiens, HT-29, 48 h, read-out: LC50 HT-29, SRB assay, 48 hours exposure): 15.8 µM; TGI HT-29 (HT-29): 1.44E−05; GI50 (K-562): 1.23 µM; CC50 (K-562): 15.8 µM; TGI K-562 (K-562): 5.28E−06; GI50 (A-549): 0.887 µM; CC50 (A-549): 7.05 µM; TGI A-549 (A-549): 2.05E−06; GI50 (PANC-1): 1.18 µM; CC50 (PANC-1): 15.8 µM; TGI PANC-1 (PANC-1): 4.98E−06
2 | Nc1nccc2c(-c3ccnc(Oc4ccccc4)n3)c3cccnc3n12 [Compound 78] | 0.784 µM | 28.2 µM | 1.87E−06 | 0.151 µM | 18.2 µM | 1.86E−06 | 0.553 µM | 1.44E−06 | 0.528 µM | 2.49 µM | 1.15E−06 | 0.77 µM | 1.87E−06 | 0.621 µM | 1.41E−06 | 1.78E−06 | 1.08 µM | 14.3 µM | 2.47E−06 | 1.34 µM | CC50 (LoVo; Homo sapiens, LoVo, 48 h, read-out: LC50 LOVO, SRB assay, 48 hours exposure): 5.05 µM; CC50 (DU-145; Homo sapiens, DU-145, 48 h, read-out: LC50 DU-145, SRB assay, 48 hours exposure): 28.2 µM; CC50 (IGROV-1; Homo sapiens, IGROV-1, 48 h, read-out: LC50 IGROV, SRB assay, 48 hours exposure): 4.74 µM; GI50 (SK-MEL-28; Homo sapiens, SK-MEL-28, 48 h, read-out: GI50 MEL-28, SRB assay, 48 hours exposure): 0.717 µM; CC50 (SK-MEL-28; Homo sapiens, SK-MEL-28, 48 h, read-out: LC50 MEL-28, SRB assay, 48 hours exposure): 7.05 µM; TGI HT-29 (HT-29): 2.82E−05; GI50 (K-562): 5.5 µM; CC50 (K-562): 28.2 µM; TGI K-562 (K-562): 2.30E−05; GI50 (A-549): 0.737 µM; CC50 (A-549): 8.01 µM; TGI A-549 (A-549): 1.68E−06; GI50 (PANC-1): 1.34 µM; CC50 (PANC-1): 28.2 µM; TGI PANC-1 (PANC-1): 1.08E−05
